Assay results from patent publication US20240226069A1, “VAFIDEMSTAT FOR USE IN TREATING AUTISM SPECTRUM DISORDERS” (ORYZON GENOMICS, S.A., priority 2019, published 2024).

System: ASD patients
Test: Phase IIa clinical trial (REIMAGINE), ASD cohort treated with vafidemstat for 8 weeks
Format: in vivo, human
Details: 1.2 mg/day oral
From the text: As part of a Phase II a clinical trial (REIMAGINE trial, EudraCT number 2018-002140-88) to evaluate the safety, tolerability and efficacy of vafidemstat to treat aggression in adult population in patients with different CNS disorders, a cohort of ASD patients was recruited and treated with vafidemstat for 8 weeks. A summary of the protocol of this clinical trial and results obtained in the ASD cohort are provided below.
Reimagine is a unicenter, open-label, 1-arm, 8-week clinical study to evaluate the efficacy, safety and tolerability of vafidemstat in aggression in adult population with ASD, ADHD and BPD.
Main objective of the trial: To evaluate the safety and tolerability of vafidemstat in adult population with ASD ADHD and BPD.
Secondary objectives of the trial: To investigate the efficacy of vafidemstat in aggression in adult population with ASD ADHD and BPD.
Main inclusion criteria: • age 18-85 • current diagnosis for ASD, ADHD or BPD according to DSM-5 criteria • significant or persistent agitation or aggression that was disruptive to patient's daily living or put the patient in harm's way for at least 3 days per week for at least 4 weeks prior to screening visit
Treatment: All patients received vafidemstat (as free base) at a dose of 1.2 mg/day, administered orally as a single capsule, in a 5 days on/2 days off schedule, during 8 weeks.
Six ASD patients were recruited, but there was one drop-out, and therefore the results as described herein correspond to the 5 ASD subjects eligible for analysis. A summary of the patients recruited in this ASD cohort (demographic data at baseline) can be found in Table 1.
Evaluation of the effect of treatment with vafidemstat on aggression was performed using the NPI A/A as well as the CGI-I and CGI-S scales. The NPI A/A subscale is based on the NPI and consists of the 4 items in the NPI related to aggression/agitation, namely: agitation/aggression, disinhibition, irritability and aberrant motor disturbance. The severity of each of the 4 items in the NPI A/A scale is rated from 1 to 3 (1=mild, 2=moderate, 3=severe) and the NPI A/A score is calculated as the sum of the scores for all 4 items. CGI values reflect clinician's ratings of patient's aggression severity (CGI-S scale) and improvement in aggression from the initiation (baseline) of the treatment (CGI-I scale). In the CGI-I scale, change from initiation of treatment is rated using a seven-point scale, where 1=very much improved since initiation of treatment, 7=very much worse since initiation of treatment, and 4=no change from baseline. In the CGI-S scale, illness/condition severity is rated using a seven-point scale, the higher the score, the more severe the illness/condition, with 1=normal, not at all ill and 7=among the most extremely ill patients.
In addition to assessing its effect on aggression, the effect of treatment with vafidemstat on ASD patients was also evaluated using the total NPI scale and the NPI non-aggression related combined score. The total NPI scale consists of 12 items relating to a variety of neuropsychiatric domains (namely: delusions, hallucinations, agitation/aggression, depression, anxiety, euphoria/elation, apathy/indifference, disinhibition, irritability, aberrant motor disturbance, nighttime behavior, and appetite/eating disorders) and was used to measure global functioning in ASD patients. The severity of each item in the NPI is rated from 1 to 3 (1=mild, 2=moderate, 3=severe) and the total NPI score is calculated as the sum of the scores for all 12 items. The NPI non-aggression related combined score is the NPI combined score for all other items in the NPI not related to aggression or agitation (8 items; namely: delusions, hallucinations, depression, anxiety, euphoria/elation, apathy/indifference, nighttime behavior, and appetite/eating disorders). […]

[1] = adult ASD patients, 5 days on/2 days off, 8 weeks

Nc1nnc(CN[C@@H]2C[C@H]2c2ccc(OCc3ccccc3)cc2)o1 [Vafidemstat, 5-((((1R,2S)-2-(4-(benzyloxy)phenyl)cyclopropyl)amino)methyl)-1,3,4-oxadiazol-2-amine]
total NPI score (12 items), visit 1 to visit 7 (5 ASD patients, baseline vs 2 months of treatment, p=0.0019 (FIG. 4)): statistically significant reduction
NPI non-aggression related combined score (8 items), visit 1 to visit 7 (5 ASD patients, baseline vs 2 months of treatment, p=0.0142 (FIG. 5)): statistically significant reduction
CGI-S value, visit 1 to visit 7 (5 ASD patients, baseline vs 8 weeks treatment, no paired test could be calculated (FIG. 3)): reduction
CGI-I value, visit 1 to visit 7 (5 ASD patients, baseline vs 8 weeks treatment, p=0.0019 (FIG. 2)): statistically significant reductions
NPI A/A (4-item agitation/aggression subscale) value, visit 1 to visit 7 (5 ASD patients, baseline vs 8 weeks treatment, p=0.0098 (FIG. 1)): statistically significant reductions
safety and tolerability [1]: safe and well tolerated, without significant adverse events
sedation [1]: No sedation
CGI-S score, visit 1 to visit 7, cohort with one additional patient (n=6 ASD patients, baseline vs 8 weeks treatment, p=0.0006 (FIG. 6)): statistically significant reduction
